{"source": "patent US7208176B2", "about": "“Drug delivery device containing neuraminidase inhibitor and an H1 antagonist” (Osmotica Corp., priority 2001, dated 2007)", "key": {"[1]": {"details": "cited from earlier work"}, "[2]": {"assay": "in vivo", "details": "po"}, "[3]": {"details": "cited from earlier work", "remark": "listed apart in the source"}}, "data": [{"smiles": "CCC(CC)O[C@@H]1C=C(C(=O)O)C[C@H](N)[C@H]1NC(C)=O", "note": "[Active metabolite of oseltamivir, oseltamivir carboxylate]", "values": [{"measurement": "steady-state plasma trough concentrations versus minimum inhibitory concentration", "setting": "[1]; 75 mg twice daily", "result": "remain above the minimum inhibitory concentration for all influenza strains tested"}, {"measurement": "metabolite clearance in renal impairment", "setting": "[1]; human, in vivo", "result": "decreases linearly with creatinine clearance"}, {"measurement": "absolute bioavailability of the active metabolite", "setting": "[1]; in vivo, po", "result": "about 80%"}, {"measurement": "time to maximal concentrations", "setting": "[1]; in vivo, po", "result": "3 to 4", "unit": "h"}, {"measurement": "time until detectable in plasma", "setting": "[1]; in vivo, po", "result": "≤ 30", "unit": "min"}, {"measurement": "accumulation", "setting": "[1]; in vivo", "result": "less than 2 fold"}, {"measurement": "apparent half-life", "setting": "[1]; in vivo", "result": "6 to 10", "unit": "h"}, {"measurement": "exposure at steady state, higher in elderly compared with young individuals", "setting": "[1]; in vivo", "result": "approximately 25%"}, {"measurement": "time to steady-state plasma concentrations", "setting": "[1]; in vivo", "result": "≤ 3", "unit": "days"}, {"measurement": "Tmax", "setting": "[2]", "result": 8, "unit": "h"}, {"measurement": "half-life", "setting": "[2]", "result": 14, "unit": "h"}]}, {"smiles": "CCOC(=O)C1=C[C@@H](OC(CC)CC)[C@H](NC(C)=O)[C@@H](N)C1", "note": "[Oseltamivir, reference compound]", "values": [{"measurement": "absorption and conversion after oral administration", "setting": "[1]; oral, G. He et al.", "result": "readily absorbed from the gastrointestinal tract and extensively converted to the active metabolite"}, {"measurement": "Tmax", "setting": "[2]", "result": 3, "unit": "h"}, {"measurement": "half-life", "setting": "[2]", "result": "5 to 7", "unit": "h"}]}, {"smiles": "CC(=O)N[C@H]1[C@H]([C@H](O)[C@H](O)CO)OC(C(=O)O)=C[C@@H]1N=C(N)N", "note": "[zanamivir, 4-guanidino-2,4-dideoxy-2,3-dehydro-N-acetylneuraminic acid]", "values": [{"measurement": "median serum half-life", "setting": "[3]; Cass et al.", "result": "2.5 and 5.05 hours"}, {"measurement": "dose systemically absorbed (median)", "setting": "[3]; in vivo", "result": "10 to 20", "unit": "%"}, {"measurement": "excreted unchanged in the urine", "setting": "[3]; in vivo", "result": "approximately 90%"}, {"measurement": "time to maximum serum concentrations", "setting": "[3]; in vivo", "result": "1 to 2", "unit": "h"}, {"measurement": "tolerability", "setting": "[3]; in vivo", "result": "well tolerated at all doses"}]}]}
